# Experimental data as given in ChEMBL document CHEMBL5104178, “Nitroimidazopyrazinones with Oral Activity against Tuberculosis and Chagas Disease in Mouse Models of Infection” (J Med Chem, 2022).
# Assays:
# [1] = system: Mycobacterium tuberculosis; experiment: Antimycobacterial activity against Mycobacterium tuberculosis H37Ra ATCC 25177 assessed as bacterial growth inhibition incubated for 6 days under normoxic condition by resazurin microtiter assay; format: functional; conditions: H37Ra ATCC 25177, 144 h, time 6 day
# Mycobacterium avium = experiment: Antimycobacterial activity against Mycobacterium avium ATCC 25291 assessed as bacterial growth inhibition incubated for 6 days under normoxic condition by resazurin microtiter assay; format: functional; conditions: ATCC 25291, 144 h, time 6 day
# [2] = system: Mycolicibacterium smegmatis; experiment: Antimycobacterial activity against Mycobacterium smegmatis mc2155 ATCC 700084 assessed as bacterial growth inhibition incubated for 24 hrs under normoxic condition by resazurin microtiter assay; format: functional
# [3] = system: Mycobacterium tuberculosis; experiment: Substrate activity at Mycobacterium tuberculosis Ddn expressed in Escherichia coli BL21 (DE3) assessed as oxidation of F420H2 by measuring Kcat by spectrophotometric analysis
# [4] = system: Mycobacterium tuberculosis; experiment: Substrate activity at Mycobacterium tuberculosis Ddn expressed in Escherichia coli BL21 (DE3) assessed as oxidation of F420H2 by measuring Km by spectrophotometric analysis
# [5] = system: Mycobacterium tuberculosis; experiment: Substrate activity at Mycobacterium tuberculosis Ddn expressed in Escherichia coli BL21 (DE3) assessed as oxidation of F420H2 by measuring Kcat/Km by spectrophotometric analysis
# [6] = Cmax in CD-1 mouse at 25 mg/kg, po measured upto 48 hrs by LC/MS/MS analysis; format: ADME, organism-based; set-up: time < 48 hrs, dose 25 mg/kg, route po; conditions: in vivo
# [7] = AUC (0 to last) in CD-1 mouse at 25 mg/kg, po measured upto 48 hrs by LC/MS/MS analysis; format: ADME, organism-based; set-up: dose 25 mg/kg, time < 48 hrs, route po; conditions: in vivo
# [8] = Tmax in CD-1 mouse at 25 mg/kg, po measured upto 48 hrs by LC/MS/MS analysis; format: ADME, organism-based; conditions: in vivo
# [9] = Half life in CD-1 mouse at 25 mg/kg, po measured upto 48 hrs by LC/MS/MS analysis; format: ADME, organism-based; conditions: in vivo
# [10] = Oral bioavailability in CD-1 mouse at 25 mg/kg measured upto 48 hrs by LC/MS/MS analysis; format: ADME, organism-based; conditions: in vivo
# [11] = Volume of distribution at steady state in CD-1 mouse at 10 mg/kg, iv measured upto 48 hrs by LC/MS/MS analysis; format: ADME, organism-based; conditions: in vivo, read-out: Vdss
# [12] = Clearance in CD-1 mouse at 10 mg/kg, iv measured upto 48 hrs by LC/MS/MS analysis; format: ADME, organism-based; conditions: in vivo
# [13] = Half life in CD-1 mouse at 10 mg/kg, iv measured upto 48 hrs by LC/MS/MS analysis; format: ADME, organism-based; conditions: in vivo
# [14] = system: Mycobacterium tuberculosis; experiment: Antimycobacterial activity against Mycobacterium tuberculosis H37Rv ATCC 27294 assessed as bacterial growth inhibition at 4 to 32 ug/ml incubated for 5 days under hypoxic condition by resazurin microtiter assay relative to control; format: functional; conditions: dose 4-32 µg/ml; time 5 day
# [15] = Solubility of compound in PBS at 7.4 by LC-UV analysis; format: physicochemical; conditions: pH 7.4
# [16] = Solubility of compound in water by LC-UV analysis; format: physicochemical; conditions: water; read-out: solubility
# [17] = system: Mycobacterium tuberculosis; experiment: Antimycobacterial activity against Mycobacterium tuberculosis H37Rv ATCC 27294 assessed as bacterial growth inhibition incubated for 5 days under normoxic condition by resazurin microtiter assay; format: functional; conditions: H37Rv ATCC 27294, 120 h, time 5 day
# [18] = system: Mycobacterium tuberculosis; experiment: Antimycobacterial activity against Mycobacterium tuberculosis H37Rv ATCC 27294 assessed as bacterial growth inhibition incubated for 5 days under hypoxic condition by resazurin microtiter assay; format: functional; conditions: H37Rv ATCC 27294, 120 h, time 5 day
# Trypanosoma cruzi [19] = experiment: Antitrypanosomal activity against Trypanosoma cruzi Tulahuen amastigotes infected in mouse 3T3 cells assessed as inhibition of parasite growth incubated for 48 hrs by […] staining based analysis; format: functional, organism-based
# Trypanosoma cruzi [20] = experiment: Antitrypanosomal activity against Trypanosoma cruzi Tulahuen amastigotes infected in mouse 3T3 cells assessed as reduction in parasite growth at Emax concentration incubated for 48 hrs by […] staining based analysis; format: functional; set-up: scale not given: the % may be the effect or the level left
# [21] = Cytotoxicity against mouse 3T3 cells; format: toxicity, cell-based; conditions: NIH3T3 cells
# [22] = Selectivity index, ratio of CC50 for cytotoxicity against mouse 3T3 cells to IC50 for antitrypanosomal activity against Trypanosoma cruzi Tulahuen amastigotes infected in mouse 3T3 cells; format: toxicity, cell-based; conditions: read-out: Ratio CC50/IC50
# [23] = Cmax in CD-1 mouse at 20 mg/kg, po administered as DMSO/PEG400 formulation measured upto 24 hrs by LC-MS/MS analysis; format: ADME, organism-based; set-up: dose 20 mg/kg, time < 24 hrs, route po; conditions: in vivo
# [24] = Tmax in CD-1 mouse at 20 mg/kg, po administered as DMSO/PEG400 formulation measured upto 24 hrs by LC-MS/MS analysis; format: ADME, organism-based; conditions: in vivo
# [25] = Half life in CD-1 mouse at 20 mg/kg, po administered as DMSO/PEG400 formulation measured upto 24 hrs by LC-MS/MS analysis; format: ADME, organism-based; conditions: in vivo
# [26] = Oral bioavailability in CD-1 mouse at 20 mg/kg administered as DMSO/PEG400 formulation measured upto 24 hrs by LC-MS/MS analysis; format: ADME, organism-based; conditions: in vivo
# [27] = Volume of distribution at steady state in CD-1 mouse at 5 mg/kg, iv administered as DMSO/PEG400 formulation measured upto 24 hrs by LC-MS/MS analysis; format: ADME, organism-based; conditions: in vivo, read-out: Vdss
# [28] = Clearance in CD-1 mouse at 5 mg/kg, iv administered as DMSO/PEG400 formulation measured upto 24 hrs by LC-MS/MS analysis; format: ADME, organism-based; conditions: in vivo
# [29] = Half life in CD-1 mouse at 5 mg/kg, iv administered as DMSO/PEG400 formulation measured upto 24 hrs by LC-MS/MS analysis; format: ADME, organism-based; conditions: in vivo
# [30] = AUC(0 to 24 hrs) in CD-1 mouse at 20 mg/kg, po administered as DMSO/PEG400 formulation measured upto 24 hrs by LC-MS/MS analysis; format: ADME, organism-based; set-up: dose 20 mg/kg, time < 24 hrs, route po; conditions: in vivo
smiles,measurement,setting,value
O=[N+]([O-])c1cn2c(n1)OC[C@@H](OCc1ccc(OC(F)(F)F)cc1)C2 [PRETOMANID],MIC,[1],≤ 0.016 µg/mL
same,MIC,Mycobacterium avium,> 32 µg/mL
same,MIC,[2],> 32 µg/mL
same,kcat,[3],9.3 10^-3/s
same,Km,[4],7.3 µM
same,kcat/Km,[5],1260 M⁻¹ s⁻¹
same,Cmax,[6],6000 ng/mL
same,AUC(0-t) at 48 h,[7],50900 ng·h/mL
same,Tmax,[8],2 h
same,half-life,[9],2.7 h
same,bioavailability,[10],100%
same,Vd,[11],1.6 L/kg
same,clearance,[12],12.1 mL/min/kg
same,half-life,[13],1.6 h
O=c1c2nc([N+](=O)[O-])cn2ccn1Cc1cncc(-c2ccc(OC(F)(F)F)cc2)c1,kcat,[3],1.2 10^-2/s
same,Km,[4],2.6 µM
same,kcat/Km,[5],4470 M⁻¹ s⁻¹
same,inhibition (INH),[14],82%
O=C1c2nc([N+](=O)[O-])cn2CN1Cc1ccccc1,solubility,[15],5.9 µM
same,solubility,[16],5.9 µM
same,MIC,[17],> 32 µg/mL
same,MIC,[18],> 32 µg/mL
CC[C@@H]([C@H](C)O)n1ncn(-c2ccc(N3CCN(c4ccc(OC[C@@H]5CO[C@@](Cn6cncn6)(c6ccc(F)cc6F)C5)cc4)CC3)cc2)c1=O [POSACONAZOLE],IC50,"Trypanosoma cruzi [19]; NIH3T3, 48 h",2 nM
same,IC90,"Trypanosoma cruzi [19]; NIH3T3, time 48 hrs",4 nM
same,Activity,Trypanosoma cruzi [20],87%
same,CC50,[21],> 1000 nM
same,selectivity ratio,[22],> 569
O=c1c2nc([N+](=O)[O-])cn2ccn1Cc1ccccc1,solubility,[15],2.7 µM
same,solubility,[16],3.2 µM
Cc1ccc(Cn2ccn3cc([N+](=O)[O-])nc3c2=O)cc1,kcat,[3],4.3 10^-3/s
same,Km,[4],2.5 µM
same,kcat/Km,[5],1710 M⁻¹ s⁻¹
O=c1c2nc([N+](=O)[O-])cn2ccn1Cc1ccc(-c2cccc(OC(F)(F)F)c2)nc1,kcat,[3],1.3 10^-3/s
same,Km,[4],5 µM
same,kcat/Km,[5],266 M⁻¹ s⁻¹
O=c1c2nc([N+](=O)[O-])cn2ccn1Cc1ccc(-c2ccc(OC(F)(F)F)cc2)cn1,Cmax,[23],3600 ng/mL
same,Tmax,[24],5.3 h
same,half-life,[25],6.1 h
same,bioavailability,[26],45%
same,Vd,[27],1.3 L/kg
same,clearance,[28],2.06 mL/min/kg
same,half-life,[29],7.2 h
same,AUC(0-t) at 24 h,[30],45900 ng·h/mL
O=c1c2nc([N+](=O)[O-])cn2ccn1Cc1ccc(-c2cccc(OC(F)(F)F)c2)cc1,kcat,[3],3.1 10^-3/s
same,Km,[4],8.4 µM
same,kcat/Km,[5],370 M⁻¹ s⁻¹
O=C1CCn2cc([N+](=O)[O-])nc2N1Cc1ccccc1,solubility,[15],142 µM
same,solubility,[16],137 µM
same,MIC,[17],> 32 µg/mL
same,MIC,[18],> 32 µg/mL
